Measured values published in patent US7858620B2, “Cyanoisoquinoline” (H. Lundbeck A/S, priority 2007, dated 2010).

target: T1, PDE10A enzyme (Homo sapiens, UniProt Q9Y233); test: PDE10A inhibition assay, SPA; assay type: biochemical; settings: column head 2,1334003; unit inferred, nM
T1 construct: made in house; host or cells: E. coli BL21(DE3)
Description: Active PDE10A enzyme is prepared in a number of ways for use in PDE assays (Loughney, K. et al. Gene 1999, 234, 109-117; Fujishige, K. et al. Eur J Biochem. 1999, 266, 1118-1127 and Soderling, S. et al. Proc. Natl. Acad. Sci. 1999, 96, 7071-7076). PDE10A can be expressed as full-length proteins or as truncated proteins, as long as they express the catalytic domain. PDE10A can be prepared in different cell types, for example insect cells or E. coli. An example of a method to obtain catalytically active PDE10A is as follows: The catalytic domain of human PDE10A (amino acids 440-779 from the sequence with accession number NP 006652) is amplified from total human brain total RNA by standard RT-PCR and is cloned into the BamH1 and Xho1 sites of the pET28a vector (Novagen). Expression in coli is performed according to standard protocols. Briefly, the expression plasmids are transformed into the BL21(DE3) E. coli strain, and 50 mL cultures inoculated with the cells allowed to grow to an OD600 of 0.4-0.6 before protein expression is induced with 0.5 mM IPTG. Following induction, the cells are incubated overnight at room temperature, after which the cells are collected by centrifugation. Cells expressing PDE10A are resuspended in 12 mL (50 mM TRIS-HCl-pH8.0, 1 mM MgCl2 and protease inhibitors). The cells are lysed by sonication, and after all cells are lysed, TritonX100 is added according to Novagen protocols.
PDE10A and Pde3A assays can for example be performed as follows: PDE10A and Pde3A assays are performed in 60 uL samples containing a fixed amount of the relevant PDE enzyme (sufficient to convert 20-25% of the cyclic nucleotide substrate), a buffer (50 mM HEPES7.6; 10 mM MgCl2; 0.02% Tween20), 0.1 mg/ml BSA, 225 pCi of ^3H-labelled cyclic nucleotide substrate, tritium labeled cAMP to a final concentration of 5 nM and varying amounts of inhibitors. Reactions are initiated by addition of the cyclic nucleotide substrate, and reactions are allowed to proceed for one hr at room temperature before being terminated through mixing with 15 uL 8 mg/mL yttrium silicate SPA beads (Amersham). The beads are allowed to settle for one hr in the dark before the plates are counted in a Wallac 1450 Microbeta counter. The measured signal can be converted to activity relative to an uninhibited control (100%) and IC50 values can be calculated using the Xlfit extension to EXCEL.

T1 sequence (Q9Y233 716-1055): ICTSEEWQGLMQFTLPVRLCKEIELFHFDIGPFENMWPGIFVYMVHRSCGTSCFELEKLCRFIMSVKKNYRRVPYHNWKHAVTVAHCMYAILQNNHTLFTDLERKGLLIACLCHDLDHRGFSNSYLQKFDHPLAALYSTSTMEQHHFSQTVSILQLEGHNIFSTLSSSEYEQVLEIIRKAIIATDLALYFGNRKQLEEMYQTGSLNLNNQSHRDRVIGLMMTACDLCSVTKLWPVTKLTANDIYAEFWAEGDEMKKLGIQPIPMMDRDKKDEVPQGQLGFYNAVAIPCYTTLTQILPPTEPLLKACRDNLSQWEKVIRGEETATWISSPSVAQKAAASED

Row | IC50 [nM] | SMILES
1 | 710 | COc1cc(OC)cc(C2CN(c3nc(C)c(C#N)c4cc(OC)c(OC)cc34)CCN2)c1 (stereo not drawn) [Compound 35, 1-[3-(3,5-Dimethoxy-phenyl)-piperazin-1-yl]-6,7-dimethoxy-3-methyl-isoquinoline-4-carbonitrile]
2 | 960 | COc1ccc(OC)c(C2CN(c3nc(C)c(C#N)c4cc(OC)c(OC)cc34)CCN2)c1 (stereo not drawn) [Compound 36, 1-[3-(2,5-Dimethoxy-phenyl)-piperazin-1-yl]-6,7-dimethoxy-3-methyl-isoquinoline-4-carbonitrile]
3 | 2600 | COc1cc2c(N3CCNC(c4ccc(Br)cc4)C3)nc(C)c(C#N)c2cc1OC (stereo not drawn) [Compound 37, 1-[3-(4-Bromo-phenyl)-piperazin-1-yl]-6,7-dimethoxy-3-methyl-isoquinoline-4-carbonitrile]
4 | 980 | COc1ccc2cc(C3CN(c4nc(C)c(C#N)c5cc(OC)c(OC)cc45)CCN3)ccc2c1 (stereo not drawn) [Compound 38, 6,7-Dimethoxy-1-[3-(6-methoxy-naphthalen-2-yl)-piperazin-1-yl]-3-methyl-isoquinoline-4-carbonitrile]
5 | 520 | COc1cc2c(N3CCN[C@H](c4ccccc4)C3)nc(C)c(C#N)c2cc1OC [Compound 40]
6 | 1200 | COc1cc2c(N3CCNC(c4ccc(F)cc4)C3)nc(C)c(C#N)c2cc1OC (stereo not drawn) [Compound 41, 1-[3-(4-Fluoro-phenyl)-piperazin-1-yl]-6,7-dimethoxy-3-methyl-isoquinoline-4-carbonitrile]
7 | 1400 | COc1cc2c(N3CCNC(c4ccccc4OC)C3)nc(C)c(C#N)c2cc1OC (stereo not drawn) [Compound 42, 6,7-Dimethoxy-1-[3-(2-methoxy-phenyl)-piperazin-1-yl]-3-methyl-isoquinoline-4-carbonitrile]
8 | 510 | COc1cc2c(N3CCNC(c4ccc5c(c4)OCO5)C3)nc(C)c(C#N)c2cc1OC (stereo not drawn) [Compound 43, 1-(3-Benzo[1,3]dioxol-5-yl-piperazin-1-yl)-6,7-dimethoxy-3-methyl-isoquinoline-4-carbonitrile]
9 | 410 | COc1cc2c(C#N)cnc(N3CCN[C@@H](c4ccccc4)C3)c2cc1OC [Compound 44, 6,7-Dimethoxy-1-((S)-3-phenyl-piperazin-1-yl)-isoquinoline-4-carbonitrile]
10 | 350 | COc1cc2c(C#N)cnc(N3CCN(C)C(c4ccc(C)cc4)C3)c2cc1OC (stereo not drawn) [Compound 45, 6,7-Dimethoxy-1-(4-methyl-3-p-tolyl-piperazin-1-yl)-isoquinoline-4-carbonitrile]
11 | 1300 | CCc1ccc(C2CN(c3ncc(C#N)c4cc(OC)c(OC)cc34)CCN2)cc1 (stereo not drawn) [Compound 46, 1-[3-(4-Ethyl-phenyl)-piperazin-1-yl]-6,7-dimethoxy-isoquinoline-4-carbonitrile]
12 | 1200 | COc1cc2c(N3CCNC(c4ccc(N(C)C)cc4)C3)nc(C)c(C#N)c2cc1OC (stereo not drawn) [Compound 47, 1-[3-(4-Dimethylamino-phenyl)-piperazin-1-yl]-6,7-dimethoxy-3-methyl-isoquinoline-4-carbonitrile]
13 | 1500 | COc1cc2c(N3CCNC(c4cc(OC)c(OC)c(OC)c4)C3)nc(C)c(C#N)c2cc1OC (stereo not drawn) [Compound 48, 6,7-Dimethoxy-3-methyl-1-[3-(3,4,5-trimethoxy-phenyl)-piperazin-1-yl]-isoquinoline-4-carbonitrile]
14 | 460 | COc1cc2c(N3CCN[C@@H](c4ccccc4)C3)nc(C)c(C#N)c2cc1OC [Compound 49, 6,7-Dimethoxy-3-methyl-1-((S)-3-phenyl-piperazin-1-yl)-isoquinoline-4-carbonitrile]
15 | 1100 | COc1cc2c(N3CCNC(c4cccc([N+](=O)[O-])c4)C3)nc(C)c(C#N)c2cc1OC (stereo not drawn) [Compound 50, 6,7-Dimethoxy-3-methyl-1-[3-(3-nitro-phenyl)-piperazin-1-yl]-isoquinoline-4-carbonitrile]
16 | 1500 | COc1cc2c(N3CCNC(c4ccc(N5CCOCC5)cc4)C3)nc(C)c(C#N)c2cc1OC (stereo not drawn) [Compound 51, 6,7-Dimethoxy-3-methyl-1-[3-(4-morpholin-4-yl-phenyl)-piperazin-1-yl]-isoquinoline-4-carbonitrile]

Row | IC50 [nM] | SMILES
17 | 210 | COc1cc2c(C#N)cnc(N3CCN[C@H](c4ccccc4)C3)c2cc1OC [Compound 52, 6,7-Dimethoxy-1-(®-3-phenyl-piperazin-1-yl)-isoquinoline-4-carbonitrile]
18 | 500 | COc1ccc(C2CN(c3ncc(C#N)c4cc(OC)c(OC)cc34)CCN2)c(C)c1 (stereo not drawn) [Compound 53, 6,7-Dimethoxy-1-[3-(4-methoxy-2-methyl-phenyl)-piperazin-1-yl]-isoquinoline-4-carbonitrile]
19 | 36 | COc1ccc(C2CN(c3ncc(C#N)c4cc(OC)c(OC)cc34)CCN2)cc1F (stereo not drawn) [Compound 54, 1-[3-(3-Fluoro-4-methoxy-phenyl)-piperazin-1-yl]-6,7-dimethoxy-isoquinoline-4-carbonitrile]
20 | 200 | CCOc1ccc(C2CN(c3ncc(C#N)c4cc(OC)c(OC)cc34)CCN2)cc1 (stereo not drawn) [Compound 55, 1-[3-(4-Ethoxy-phenyl)-piperazin-1-yl]-6,7-dimethoxy-isoquinoline-4-carbonitrile]
21 | 81 | COc1ccc(C2CN(c3ncc(C#N)c4cc(OC)c(OC)cc34)CCN2)cc1Cl (stereo not drawn) [Compound 56, 1-[3-(3-Chloro-4-methoxy-phenyl)-piperazin-1-yl]-6,7-dimethoxy-isoquinoline-4-carbonitrile]
22 | 530 | COc1cc2c(C#N)cnc(N3CCNC(c4ccc(OC(C)C)cc4)C3)c2cc1OC (stereo not drawn) [Compound 57, 1-[3-(4-Isopropoxy-phenyl)-piperazin-1-yl]-6,7-dimethoxy-isoquinoline-4-carbonitrile]
23 | 850 | COc1ccc(C2CN(c3ncc(C#N)c4cc(OC)c(OC)cc34)CCN2)c(OC)c1 (stereo not drawn) [Compound 58, 1-[3-(2,4-Dimethoxy-phenyl)-piperazin-1-yl]-6,7-dimethoxy-isoquinoline-4-carbonitrile]
24 | 650 | CCOc1ccc(C2CN(c3ncc(C#N)c4cc(OC)c(OC)cc34)CCN2)cc1C (stereo not drawn) [Compound 59, 1-[3-(4-Ethoxy-3-methyl-phenyl)-piperazin-1-yl]-6,7-dimethoxy-isoquinoline-4-carbonitrile]
25 | 2300 | COc1cc2c(C#N)cnc(N3CCNC(c4ccc(OC(F)(F)F)cc4)C3)c2cc1OC (stereo not drawn) [Compound 60, 6,7-Dimethoxy-1-[3-(4-trifluoromethoxy-phenyl)-piperazin-1-yl]-isoquinoline-4-carbonitrile]
26 | 1200 | COc1ccc([C@@H]2CN(c3ncc(C#N)c4cc(OC)c(OC)cc34)CCN2)cc1 [Compound 61, 6,7-Dimethoxy-1-[(R)-3-(4-methoxy-phenyl)-piperazin-1-yl]-isoquinoline-4-carbonitrile]
27 | 47 | COc1ccc([C@H]2CN(c3ncc(C#N)c4cc(OC)c(OC)cc34)CCN2)cc1 [Compound 62, 6,7-Dimethoxy-1-[(S)-3-(4-methoxy-phenyl)-piperazin-1-yl]-isoquinoline-4-carbonitrile]
28 | 870 | COc1cc2c(C#N)cnc(N3CCNC(c4ccc(OC(C)C)c(C)c4)C3)c2cc1OC (stereo not drawn) [Compound 63, 1-[3-(4-Isopropoxy-3-methyl-phenyl)-piperazin-1-yl]-6,7-dimethoxy-isoquinoline-4-carbonitrile]
29 | 2100 | COc1cc(C)c(C2CN(c3ncc(C#N)c4cc(OC)c(OC)cc34)CCN2)c(C)c1 (stereo not drawn) [Compound 64, 6,7-Dimethoxy-1-[3-(4-methoxy-2,6-dimethyl-phenyl)-piperazin-1-yl]-isoquinoline-4-carbonitrile]
30 | 1700 | COc1cc2c(C#N)cnc(N3CCNC(c4cc(C)c(OC)c(C)c4)C3)c2cc1OC (stereo not drawn) [Compound 65, 6,7-Dimethoxy-1-[3-(4-methoxy-3,5-dimethyl-phenyl)-piperazin-1-yl]-isoquinoline-4-carbonitrile]
31 | 130 | COc1cc2c(C#N)cnc(N3CCNC(c4ccc5c(c4)OCCO5)C3)c2cc1OC (stereo not drawn) [Compound 66, 1-[3-(2,3-Dihydro-benzo[1,4]dioxin-6-yl)-piperazin-1-yl]-6,7-dimethoxy-isoquinoline-4-carbonitrile]

Row | SMILES | IC50 [nM]
32 | COc1ccc(C2CN(c3nc(C)c(C#N)c4cc(OC)c(OC)cc34)CCO2)cc1 (stereo not drawn) [Compound 39, 6,7-Dimethoxy-1-[2-(4-methoxy-phenyl)-morpholin-4-yl]-3-methyl-isoquinoline-4-carbonitrile] | 930
33 | COc1cc2c(C#N)cnc(N3CCNC(c4ccc(OCC(C)C)cc4)C3)c2cc1OC (stereo not drawn) [Compound 67, 1-[3-(4-Isobutoxy-phenyl)-piperazin-1-yl]-6,7-dimethoxy-isoquinoline-4-carbonitrile] | 1100
